Experiment [1] has as its target T1, MerTK (Mus musculus, UniProt Q60805).
T1 construct: endogenous in cells; host or cells: RAW264 cells
T1 sequence (Q60805 19-994): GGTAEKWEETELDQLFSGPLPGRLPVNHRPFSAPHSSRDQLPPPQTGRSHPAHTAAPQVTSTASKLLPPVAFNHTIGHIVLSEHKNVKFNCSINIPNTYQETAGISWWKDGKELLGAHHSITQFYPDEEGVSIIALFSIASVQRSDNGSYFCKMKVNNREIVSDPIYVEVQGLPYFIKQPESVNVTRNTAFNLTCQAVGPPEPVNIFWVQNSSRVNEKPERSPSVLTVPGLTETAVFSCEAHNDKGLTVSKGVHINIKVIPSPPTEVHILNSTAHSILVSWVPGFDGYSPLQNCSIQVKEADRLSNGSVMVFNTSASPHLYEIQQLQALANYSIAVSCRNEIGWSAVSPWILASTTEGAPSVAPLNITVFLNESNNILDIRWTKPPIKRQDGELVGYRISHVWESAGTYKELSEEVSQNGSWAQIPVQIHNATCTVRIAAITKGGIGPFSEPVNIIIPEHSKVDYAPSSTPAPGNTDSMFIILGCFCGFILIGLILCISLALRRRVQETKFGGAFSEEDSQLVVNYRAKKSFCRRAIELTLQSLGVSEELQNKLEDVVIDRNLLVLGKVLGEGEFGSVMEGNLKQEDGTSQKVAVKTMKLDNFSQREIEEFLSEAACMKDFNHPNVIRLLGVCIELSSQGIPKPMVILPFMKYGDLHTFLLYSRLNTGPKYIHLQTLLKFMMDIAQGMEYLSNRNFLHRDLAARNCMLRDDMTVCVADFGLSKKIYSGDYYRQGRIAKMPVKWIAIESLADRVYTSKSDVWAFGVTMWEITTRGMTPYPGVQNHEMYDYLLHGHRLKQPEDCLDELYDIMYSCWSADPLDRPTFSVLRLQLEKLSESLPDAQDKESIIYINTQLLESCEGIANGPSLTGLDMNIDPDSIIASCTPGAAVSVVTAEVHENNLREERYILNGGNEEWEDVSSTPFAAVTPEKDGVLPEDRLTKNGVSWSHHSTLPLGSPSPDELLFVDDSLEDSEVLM
The experiment can be described thus: MerTK degradation in RAW264 cells (Western blot). Conditions: RAW264.7, 0.001-1 μM, 4 hour-incubation at 37° C., read-out: RAW264 Max % MerTK Degradation. The class given is cell-based. On the procedure:
Compounds were reconstituted in DMSO to make 10 mM stock solutions. RAW264 cells were maintained in DMEM medium containing 10% FBS. Cells were seeded into 6-well plates with 2×10^6 cells per well. 2 μL of diluted compounds were added to cells to the final concentration of 0.001-1 μM. After a 4 hour-incubation at 37° C., cells were washed with DPBS (1×) once. Then RIPA lysis buffer with Halt Protease and Phosphatase Inhibitor Cocktail was added directly to the cells and cells were then incubated on ice for 10 min, then lysate was harvested into 1.5 mL Eppendorf tubes and centrifuged at 14,000 rpm for 10 min at 4° C. and the supernatants were collected for Western blots.
The protein concentration of cell lysates was quantified with Pierce™ BCA Protein Assay Kit. […] BCA working reagents were prepared by mixing BCA reagent A with reagent B in 50: 1 ratio. 200 μL of the BCA working reagents were added to 25 μL of BCA standard or cell lysates in microplate, and mixed thoroughly on a plate shaker for 30 seconds. After incubation at 37° C. for 30 min, the absorbance of samples at 562 nm were measured with EnVision Plate Reader.
Protein lysates were prepared in NuPAGE™ LDS sample buffer and NuPAGE™ sample reducing agent, and incubated at 95° C. for 5 min. […] The proteins were transferred to low fluorescence PVDF membranes using the Trans-Blot Turbo Transfer System. Membranes were then blocked in Odyssey blocking buffer at RT for 1 h followed by primary incubation at 4° C. overnight. The primary antibodies were MerTK goat polyclonal antibody and actin mouse monoclonal antibody. Membranes were washed three times with TBST (1×), and then incubated with IR Dye 800 CW Donkey anti-goat and IR Dye 700 CW Goat anti-mouse secondary antibodies in 1:10,000 dilution at RT for 1 h. The Western blot images were obtained using Odyssey Imaging System.
In general terms: In western blotting, separated proteins are transferred to a membrane and probed.

Experiment [2] addresses T2, MerTK (Homo sapiens, UniProt Q12866).
T2 construct: endogenous in cells; host or cells: Jurkat cells
T2 sequence (Q12866 21-999): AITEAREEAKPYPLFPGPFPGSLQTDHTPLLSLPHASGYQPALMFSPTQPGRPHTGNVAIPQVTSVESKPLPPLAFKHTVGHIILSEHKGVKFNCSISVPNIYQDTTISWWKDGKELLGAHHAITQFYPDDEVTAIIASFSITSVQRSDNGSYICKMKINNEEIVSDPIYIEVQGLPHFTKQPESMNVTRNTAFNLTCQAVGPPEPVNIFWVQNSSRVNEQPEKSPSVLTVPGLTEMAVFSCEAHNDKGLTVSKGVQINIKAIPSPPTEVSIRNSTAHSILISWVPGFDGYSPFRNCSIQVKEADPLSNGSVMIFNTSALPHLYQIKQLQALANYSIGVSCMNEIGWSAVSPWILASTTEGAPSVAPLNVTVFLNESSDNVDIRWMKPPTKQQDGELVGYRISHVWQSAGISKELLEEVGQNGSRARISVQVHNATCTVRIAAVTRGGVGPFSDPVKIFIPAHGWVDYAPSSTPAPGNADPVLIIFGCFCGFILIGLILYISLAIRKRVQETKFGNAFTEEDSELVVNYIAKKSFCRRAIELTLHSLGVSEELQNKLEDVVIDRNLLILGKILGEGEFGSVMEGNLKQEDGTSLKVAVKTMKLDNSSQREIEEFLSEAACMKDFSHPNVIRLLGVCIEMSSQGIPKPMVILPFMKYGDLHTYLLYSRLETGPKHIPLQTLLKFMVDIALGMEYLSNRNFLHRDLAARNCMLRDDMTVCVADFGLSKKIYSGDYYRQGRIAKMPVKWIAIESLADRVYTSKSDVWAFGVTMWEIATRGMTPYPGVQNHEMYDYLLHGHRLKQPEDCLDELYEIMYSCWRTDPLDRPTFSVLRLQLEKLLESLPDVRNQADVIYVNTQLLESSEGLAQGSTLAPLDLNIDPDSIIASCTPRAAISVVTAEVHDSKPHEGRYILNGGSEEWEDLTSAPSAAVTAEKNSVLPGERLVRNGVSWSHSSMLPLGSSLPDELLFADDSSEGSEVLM
The experiment can be described thus: MerTk degradation in Jurkat cells (Western blot). To be noted: Jurkat, 4 h, 0.001-1 μM, 4 hour-incubation at 37° C., read-out: Jurkat Max % MerTK Degradation. The class given is cell-based. The essentials: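 MerTK degradation was read by near-infrared Western blot, normalized to actin, in BCA-quantified lysates of Jurkat cells exposed to 0.001-1 μM compound for 4 h at 37 °C.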

Where a name gives a salt, the structure may show the parent alone.

For `CCCCNc1ncc2c(-c3ccc(S(=O)(=O)N4CCN(C(=O)NCCCOCCCOCCCc5cccc6c5n(C)c(=O)n6C5CCC(=O)NC5=O)CC4)cc3)nn([C@H]3CC[C@H](O)CC3)c2n1` (stereo partly drawn) [I-29, 4-((4-(6-(Butylamino)-1-(trans-4-hydroxycyclohexyl)-1H-pyrazolo[3,4-d]pyrimidin-3-yl)phenyl)sulfonyl)-N-(3-(3-(3-(1-(2,6-dioxopiperidin-3-yl)-3-methyl-2-oxo-2,3-dihydro-1H-benzo[d]imidazol-4-yl)propoxy)propoxy)propyl)piperazine-1-carboxamide], the Dmax at MerTK [1] and on MerTK [2] was greater than 50% in each case.
In the case of `CCCCNc1ncc2c(-c3ccc(S(=O)(=O)N4CCN(C(=O)NCCCOCCCNc5cccc6c5C(=O)N(C5CCC(=O)NC5=O)C6=O)CC4)cc3)nn([C@H]3CC[C@H](O)CC3)c2n1` (stereo partly drawn) [I-20, 4-((4-(6-(Butylamino)-1-(trans-4-hydroxycyclohexyl)-1H-pyrazolo[3,4-d]pyrimidin-3-yl)phenyl)sulfonyl)-N-(3-(3-((2-(2,6-dioxopiperidin-3-yl)-1,3-dioxoisoindolin-4-yl)amino)propoxy)propyl)piperazine-1-carboxamide], the Dmax on MerTK [1] and at MerTK [2] was greater than 50% throughout.
Regarding `CCCCNc1ncc2c(-c3ccc(S(=O)(=O)N4CCN(C(=O)CCCCCCCCCCC(=O)N[C@H](C(=O)N5C[C@H](O)C[C@H]5C(=O)NCc5ccc(-c6scnc6C)cc5)C(C)(C)C)CC4)cc3)nn([C@H]3CC[C@H](O)CC3)c2n1` [I-27, (2S,4R)-1-((S)-2-(12-(4-((4-(6-(Butylamino)-1-(trans-4-hydroxycyclohexyl)-1H-pyrazolo[3,4-d]pyrimidin-3-yl)phenyl)sulfonyl)piperazin-1-yl)-12-oxododecanamido)-3,3-dimethylbutanoyl)-4-hydroxy-N-(4-(4-methylthiazol-5-yl)benzyl)pyrrolidine-2-carboxamide], the Dmax at MerTK [1] and at MerTK [2] was greater than 50% throughout.
As to `Cc1ccc(CNc2ncc3c(-c4ccc(CN5CCN(CCOCCOCCOCCOCCNc6cccc7c6C(=O)N(C6CCC(=O)NC6=O)C7=O)CC5)cc4)cn([C@H]4CC[C@H](O)CC4)c3n2)cc1` (stereo partly drawn) [I-26, 2-(2,6-Dioxopiperidin-3-yl)-4-[15-(4-[[4-(2-[[(4-methylphenyl)methyl]amino]-7-[trans-4-hydroxycyclohexyl]-7H-pyrrolo[2,3-d]pyrimidin-5-yl)phenyl]methyl]piperazin-1-yl)-4,7,10,13-tetraoxa-1-azapentadecan-1-yl]-2,3-dihydro-1H-isoindole-1,3-dione formate], the Dmax on MerTK [1] and at MerTK [2] was greater than 50% each time.
Take `COCCNc1ncc2c(-c3ccc(CN4CCN(CCOCCOCCOCCOCCNc5cccc6c5C(=O)N(C5CCC(=O)NC5=O)C6=O)CC4)cc3)cn([C@H]3CC[C@H](O)CC3)c2n1` (stereo partly drawn) [I-15, 2-(2,6-Dioxopiperidin-3-yl)-4-(15-[4-[(4-[2-[(2-methoxyethyl)amino]-7-[trans-4-hydroxycyclohexyl]-7H-pyrrolo[2,3-d]pyrimidin-5-yl]phenyl)methyl]piperazin-1-yl]-4,7,10,13-tetraoxa-1-azapentadecan-1-yl)-2,3-dihydro-1H-isoindole-1,3-dione diformate]: the values for the Dmax on MerTK [1] and on MerTK [2] were 20 to 50% and greater than 50%, respectively.
For the molecule `CCCCNc1ncc2c(-c3ccc(S(=O)(=O)N4CCN(CCOCCOCCOCCOCCCc5ccc6c(c5)n(C)c(=O)n6C5CCC(=O)NC5=O)CC4)cc3)cn([C@H]3CC[C@H](O)CC3)c2n1` (stereo partly drawn) [I-12, 3-(5-(1-(4-(4-(2-(Butylamino)-7-(trans-4-hydroxycyclohexyl)-7H-pyrrolo [2,3-d]pyrimidin-5-yl)phenylsulfonyl)piperazin-1-yl)-3,6,9,12-tetraoxapentadecan-15-yl)-3-methyl-2-oxo-2,3-dihydrobenzo[d]imidazol-1-yl)piperidine-2,6-dione], the Dmax on MerTK [1] and on MerTK [2] was greater than 50% in each case.
Regarding `CCCCNc1ncc2c(-c3ccc(CN4CCN(CCOCCOCCOCCOCCNc5cccc6c5n(C)c(=O)n6C5CCC(=O)NC5=O)CC4)cc3)nn([C@H]3CC[C@H](O)CC3)c2n1` (stereo partly drawn) [I-37, trans-3-(4-[15-[4-([4-[6-(butylamino)-1-[4-hydroxycyclohexyl]-1H-pyrazolo[3,4-d]pyrimidin-3-yl]phenyl]methyl)piperazin-1-yl]-4,7,10,13-tetraoxa-1-azapentadecan-1-yl]-3-methyl-2-oxo-2,3-dihydro-1H-1,3-benzodiazol-1-yl)piperidine-2,6-dione], the Dmax at MerTK [1] and at MerTK [2] was greater than 50% each time.
Consider `CCCCNc1ncc2c(-c3ccc(S(=O)(=O)N4CCN(C(=O)NCCCOCCCOCCCNc5cccc6c5C(=O)N(C5CCC(=O)NC5=O)C6=O)CC4)cc3)nn([C@H]3CC[C@H](O)CC3)c2n1` (stereo partly drawn) [I-19, 4-((4-(6-(Butylamino)-1-(trans-4-hydroxycyclohexyl)-1H-pyrazolo[3,4-d]pyrimidin-3-yl)phenyl)sulfonyl)-N-(3-(3-(3-((2-(2,6-dioxopiperidin-3-yl)-1,3-dioxoisoindolin-4-yl)amino)propoxy)propoxy)propyl)piperazine-1-carboxamide], for which the Dmax on MerTK [1] and on MerTK [2] was greater than 50% each time.
Consider `Cc1ccc(CNc2ncc(-c3ccc(CN4CCN(CCOCCOCCOCCOCCNc5cccc6c5C(=O)N(C5CCC(=O)NC5=O)C6=O)CC4)cn3)c(N[C@H]3CC[C@H](O)CC3)n2)cc1` (stereo partly drawn) [I-21, 2-(2,6-Dioxopiperidin-3-yl)-4-[15-(4-[[6-(2-[[(4-methylphenyl)methyl]amino]-4-[[trans-4-hydroxycyclohexyl]amino]pyrimidin-5-yl)pyridin-3-yl]methyl]piperazin-1-yl)-4,7,10,13-tetraoxa-1-azapentadecan-1-yl]-2,3-dihydro-1H-isoindole-1,3-dione], for which the Dmax on MerTK [1] and at MerTK [2] was 20 to 50% in each case.

Source of the values: US20260042762A1 (Kymera Therapeutics, Inc., priority 2018, published 2026).
